Measured values published in patent US6444850B1, “Fungicidial compounds having a fluorovinyloxphyenyl moiety and process for the preparation thereof” (priority 1997, dated 2002).

Key:
[1] = test system: Pyricularia oryzae Carvara KA301; assay type: in vivo; conditions: for C. V. (%) RCB: 50 ppm, control value, rice blast; for C. V. (%) Fungicidal Activities against RCB at 10 ppm / C. V. (%) Fungicidal Activities against RCB at 10 ppm (TABLE 6): sprayed on Nakdong rice plant, control value from lesion area
[2] = test system: Botrytis cinerae; assay: Fungicidal activity against cucumber gray mold rot (CGM) disease; assay type: in vivo; conditions: 50 ppm, control value
Procedure: Botrytis cinerae, which was isolated from cucumber infected thereby, was inoculated on a PDA agar medium and cultured under a 12L/12D cycle at 25° C. for 15 days to form spore. The spores were scraped, filtered through a gauze and then suspended in potato dextrose liquid medium at a concentration of 1×10^6 spore/ml. The spore suspension was sprayed on a cucumber plant having one leaf. The cucumber plant was held in a humidified room at 20° C. for 3 days. L.A. on a leaf was measured to calculate an C.V.

[3] = test system: Phytophthora infestans; assay type: in vivo; conditions: 50 ppm; control value, tomato late blight
[4] = test system: Puccinia recondita; assay: Fungicidal activity against wheat leaf rust (WLR) disease; assay type: in vivo; conditions: for C. V. (%), Fungicidal Activities against WLB at 10 ppm: Table 8 (Test Example 5); for C. V. (%) WLR: 50 ppm, control value, wheat leaf rust
[5] = test system: Erysiphae graminis; assay: Fungicidal activity against barley powdery mildew (BPM) disease; assay type: in vivo; conditions: for C. V. (%), Fungicidal activities against TLB at 10 ppm: Table 9 (Test Example 6); for C. V. (%) BPM: 50 ppm, control value, barley powdery mildew
Procedure: Erysiphae graminis was subcultured on a wheat plant in a laboratory. 15 g of barley seeds was sowed in a pot (diameter 6.5 cm) and cultured in a greenhouse for 7 days to obtain a barley plant having only a primary leaf. The barley plant was inoculated with spores by shaking thereover another plant infected by BPM. The inoculated barley plant was cultured in an incubator maintained at a temperature of 22 to 24° C. and a relative humidity of 50% for 7 days to induce BPM. L.A. on the leaf was measured to calculate an C.V.

[6] = test system: Rhizoctonia solani AG-1; assay: Fungicidal activity against rice sheath blight (RSB) disease; conditions: 50 ppm, control value
Procedure: 50 ml of the resulting solution was sprayed on leaves of a host plant. The plant was kept at room temperature for 24 hours to let the solvent evaporate, and then, a pathogenic fungus was inoculated thereonto. The plant was held in a humidity chamber for 24 hours, transferred to an plant growth room kept at 20 to 27° C. and a relative humidity of 60 to 80% and kept to induce disease. Subsequently, the lesion area(L.A.) attacked by the pathogenic fungus was measured according to a method of Cho(Cho, K. Y., Search Report by Korea Research Institute of Chemical Technology (1989))”. This procedure was repeated twice for each test. 10% Acetone solution containing 250 ppm of Tween-20 was used as a control.
The fungicidal activity of the compound of the present invention is repressed by a control value (C.V.) calculated as; [formula]
Rhizoctonia solani AG-1 was cultured on a PDA medium(potato 200 g, dextrose 20 g, agar 20 g and distilled water 1 l) for 3 days and the agar disc (diameter 0.6 cm) was inoculated and cultured on sterilized wheat bran medium in a 1 l bottle at 26 to 28° C. for 7 days. A mycelial mass was ground using a homogenizer, inoculated uniformly on soil of a pot wherein a Nakdong rice plant having 2 or 3 leaves and an height of 5 cm grew, and kept in humidity polyvinyl chamber for 5 days to induce RSB. L.A. on a leaf sheath was measured to calculate an C.V.

CO/C=C(/C(=O)OC)c1ccccc1COc1cccc(OC(F)=Cc2ccccc2)c1 [Compound 1, methyl (2E)-3-methoxy-2-{2′-{3″-(2′″-fluorostyryl)-2′″-oxy}phenoxymethyl}phenyl-2-propenoate]
C. V. (%) RCB [1]: 97%
C. V. (%) CGM [2]: 62%
C. V. (%) TLB [3]: 70%
C. V. (%), Fungicidal Activities against WLB at 10 ppm [4]: 96%
C. V. (%) WLR [4]: 100%
C. V. (%), Fungicidal activities against TLB at 10 ppm [5]: 100%
C. V. (%) BPM [5]: 100%
C. V. (%) RSB [6]: 95%

CNC(=O)/C(=C/OC)c1ccccc1COc1cccc(OC(F)=Cc2ccccc2)c1 [Compound 2, (2E)-N-methyl-3-methoxy-2-{2′-{3″-(2′″-fluorostyryl)-2′″-oxy}phenoxymethyl}phenyl-2-propenamide]
C. V. (%) RCB [1]: 100%
C. V. (%) CGM [2]: 84%
C. V. (%) TLB [3]: 74%
C. V. (%) WLR [4]: 96%
C. V. (%) BPM [5]: 86%
C. V. (%) RSB [6]: 50%

CON=C(C(=O)OC)c1ccccc1COc1cccc(OC(F)=Cc2ccccc2)c1 [Compound 3]
C. V. (%) RCB [1]: 100%
C. V. (%) CGM [2]: 15%
C. V. (%) TLB [3]: 70%
C. V. (%) WLR [4]: 93%
C. V. (%) BPM [5]: 41%
C. V. (%) RSB [6]: 70%

COC(=O)C(=CSC)c1ccccc1COc1cccc(OC(F)=Cc2ccccc2)c1 [Compound 4]
C. V. (%) RCB [1]: 90%
C. V. (%) CGM [2]: 33%
C. V. (%) TLB [3]: 86%
C. V. (%) WLR [4]: 85%
C. V. (%) BPM [5]: 91%
C. V. (%) RSB [6]: 75%

COC=C(C(=O)OC)c1ccccc1COc1cccc(OC(F)=Cc2ccccc2C)c1 [Compound 5]
C. V. (%) Fungicidal Activities against RCB at 10 ppm [1]: 94%
C. V. (%) Fungicidal Activities against RCB at 10 ppm (TABLE 6) [1]: 94%
C. V. (%) RCB [1]: 95%
C. V. (%) CGM [2]: 0%
C. V. (%) TLB [3]: 50%
C. V. (%), Fungicidal Activities against WLB at 10 ppm [4]: 95%
C. V. (%) WLR [4]: 100%
C. V. (%), Fungicidal activities against TLB at 10 ppm [5]: 94%
C. V. (%) BPM [5]: 99%
C. V. (%) RSB [6]: 95%

COC=C(C(=O)OC)c1ccccc1COc1cccc(OC(F)=Cc2cccc(C)c2)c1 [Compound 6]
C. V. (%) Fungicidal Activities against RCB at 10 ppm [1]: 96%
C. V. (%) Fungicidal Activities against RCB at 10 ppm (TABLE 6) [1]: 96%
C. V. (%) RCB [1]: 100%
C. V. (%) CGM [2]: 41%
C. V. (%) TLB [3]: 86%
C. V. (%), Fungicidal Activities against WLB at 10 ppm [4]: 91%
C. V. (%) WLR [4]: 98%
C. V. (%), Fungicidal activities against TLB at 10 ppm [5]: 100%
C. V. (%) BPM [5]: 100%
C. V. (%) RSB [6]: 65%

CNC(=O)C(=COC)c1ccccc1COc1cccc(OC(F)=Cc2cccc(C)c2)c1 [Compound 7]
C. V. (%) RCB [1]: 26%
C. V. (%) CGM [2]: 33%
C. V. (%) TLB [3]: 46%
C. V. (%) WLR [4]: 0%
C. V. (%) BPM [5]: 0%
C. V. (%) RSB [6]: 10%

CON=C(C(=O)OC)c1ccccc1COc1cccc(OC(F)=Cc2cccc(C)c2)c1 [Compound 8]
C. V. (%) Fungicidal Activities against RCB at 10 ppm [1]: 90%
C. V. (%) Fungicidal Activities against RCB at 10 ppm (TABLE 6) [1]: 90%
C. V. (%) RCB [1]: 100%
C. V. (%) CGM [2]: 51%
C. V. (%) TLB [3]: 92%
C. V. (%), Fungicidal Activities against WLB at 10 ppm [4]: 90%
C. V. (%) WLR [4]: 98%
C. V. (%), Fungicidal activities against TLB at 10 ppm [5]: 93%
C. V. (%) BPM [5]: 97%
C. V. (%) RSB [6]: 92%

COC(=O)C(=CSC)c1ccccc1COc1cccc(OC(F)=Cc2cccc(C)c2)c1 [Compound 9]
C. V. (%) RCB [1]: 96%
C. V. (%) CGM [2]: 33%
C. V. (%) TLB [3]: 26%
C. V. (%) WLR [4]: 88%
C. V. (%) BPM [5]: 95%
C. V. (%) RSB [6]: 92%

COC=C(C(=O)OC)c1ccccc1COc1cccc(OC(F)=Cc2ccc(C)cc2)c1 [Compound 10]
C. V. (%) Fungicidal Activities against RCB at 10 ppm [1]: 95%
C. V. (%) Fungicidal Activities against RCB at 10 ppm (TABLE 6) [1]: 95%
C. V. (%) RCB [1]: 97%
C. V. (%) CGM [2]: 0%
C. V. (%) TLB [3]: 50%
C. V. (%), Fungicidal Activities against WLB at 10 ppm [4]: 96%
C. V. (%) WLR [4]: 100%
C. V. (%), Fungicidal activities against TLB at 10 ppm [5]: 97%
C. V. (%) BPM [5]: 95%
C. V. (%) RSB [6]: 92%

CNC(=O)C(=COC)c1ccccc1COc1cccc(OC(F)=Cc2ccc(C)cc2)c1 [Compound 11]
C. V. (%) RCB [1]: 16%
C. V. (%) CGM [2]: 15%
C. V. (%) TLB [3]: 20%
C. V. (%) WLR [4]: 43%
C. V. (%) BPM [5]: 25%
C. V. (%) RSB [6]: 5%

CON=C(C(=O)OC)c1ccccc1COc1cccc(OC(F)=Cc2ccc(C)cc2)c1 [Compound 12]
C. V. (%) RCB [1]: 100%
C. V. (%) CGM [2]: 27%
C. V. (%) TLB [3]: 84%
C. V. (%), Fungicidal Activities against WLB at 10 ppm [4]: 97%
C. V. (%) WLR [4]: 93%
C. V. (%), Fungicidal activities against TLB at 10 ppm [5]: 96%
C. V. (%) BPM [5]: 94%
C. V. (%) RSB [6]: 80%

COC=C(C(=O)OC)c1ccccc1COc1cccc(OC(F)=Cc2ccc(C)c(C)c2)c1 [Compound 13]
C. V. (%) Fungicidal Activities against RCB at 10 ppm [1]: 97%
C. V. (%) Fungicidal Activities against RCB at 10 ppm (TABLE 6) [1]: 97%
C. V. (%) RCB [1]: 97%
C. V. (%) CGM [2]: 58%
C. V. (%) TLB [3]: 85%
C. V. (%), Fungicidal Activities against WLB at 10 ppm [4]: 95%
C. V. (%) WLR [4]: 98%
C. V. (%), Fungicidal activities against TLB at 10 ppm [5]: 99%
C. V. (%) BPM [5]: 100%
C. V. (%) RSB [6]: 50%

CNC(=O)C(=COC)c1ccccc1COc1cccc(OC(F)=Cc2ccc(C)c(C)c2)c1 [Compound 14]
C. V. (%) RCB [1]: 16%
C. V. (%) CGM [2]: 63%
C. V. (%) TLB [3]: 20%
C. V. (%) WLR [4]: 16%
C. V. (%) BPM [5]: 25%
C. V. (%) RSB [6]: 5%

CON=C(C(=O)OC)c1ccccc1COc1cccc(OC(F)=Cc2ccc(C)c(C)c2)c1 [Compound 15]
C. V. (%) RCB [1]: 92%
C. V. (%) CGM [2]: 15%
C. V. (%) TLB [3]: 25%
C. V. (%) WLR [4]: 96%
C. V. (%) BPM [5]: 100%
C. V. (%) RSB [6]: 90%

COC(=O)C(=CSC)c1ccccc1COc1cccc(OC(F)=Cc2ccc(C)c(C)c2)c1 [Compound 16]
C. V. (%) RCB [1]: 53%
C. V. (%) CGM [2]: 0%
C. V. (%) TLB [3]: 33%
C. V. (%) WLR [4]: 83%
C. V. (%) BPM [5]: 97%
C. V. (%) RSB [6]: 60%

COC=C(C(=O)OC)c1ccccc1COc1cccc(OC(F)=Cc2cc(C)cc(C)c2)c1 [Compound 17]
C. V. (%) Fungicidal Activities against RCB at 10 ppm [1]: 95%
C. V. (%) Fungicidal Activities against RCB at 10 ppm (TABLE 6) [1]: 95%
C. V. (%) RCB [1]: 90%
C. V. (%) CGM [2]: 50%
C. V. (%) TLB [3]: 81%
C. V. (%), Fungicidal Activities against WLB at 10 ppm [4]: 99%
C. V. (%) WLR [4]: 100%
C. V. (%) BPM [5]: 99%
C. V. (%) RSB [6]: 60%

CNC(=O)C(=COC)c1ccccc1COc1cccc(OC(F)=Cc2cc(C)cc(C)c2)c1 [Compound 18]
C. V. (%) RCB [1]: 26%
C. V. (%) CGM [2]: 21%
C. V. (%) TLB [3]: 6%
C. V. (%) WLR [4]: 0%
C. V. (%) BPM [5]: 0%
C. V. (%) RSB [6]: 5%

CON=C(C(=O)OC)c1ccccc1COc1cccc(OC(F)=Cc2cc(C)cc(C)c2)c1 [Compound 19]
C. V. (%) RCB [1]: 100%
C. V. (%) CGM [2]: 0%
C. V. (%) TLB [3]: 33%
C. V. (%) WLR [4]: 100%
C. V. (%) BPM [5]: 98%
C. V. (%) RSB [6]: 90%
